Experimental data published in patent publication US20180110747A1, “USE OF THIA OXO COMPOUNDS FOR LOWERING APO C3” (Pronova Biopharma Norge AS, priority 2015, published 2018).

Assays:
[1] = In-vitro digestion studies in a bio relevant media; format: in vitro ADME
From the text: Examples 1-23 are exemplary and one skilled in the art would understand how to apply these general methods to arrive at other compounds within the scope of Formula (I). Compounds of the present disclosure may be in the form of a pharmaceutically acceptable salt or ester. For example, the compounds of Formula (I) may be in the form of esters, such as a phospholipid, a glyceride or a C1-C6-alkyl ester. In at least one embodiment, the ester is chosen from a glyceride or a C1-C6-alkyl ester. In at least one embodiment, the ester is chosen from a triglyceride, a 1,2 diglyceride, a 1,3-diglyceride, a 1-monoglyceride, a 2-monoglyceride, a methyl ester, an ethyl ester, a propyl ester, a isopropyl ester, a n-butyl ester and a tert-butyl ester. In at least one embodiment, the compound of Formula (I) is present as a methyl ester, an ethyl ester, an isopropyl ester, a n-butyl ester or a tert-butyl ester, for example as a methyl ester or an ethyl ester.

apoC-III = assay: Hepatic apoC-III gene expression in APOE*3Leiden transgenic mice on Western-type diet; format: in vivo, mouse; conditions: 0.3 mmol/kg bw/day orally as admix to WTD, 4 weeks
From the text: The APOE*3Leiden transgenic mouse is expressing a variant of the human apolipoprotein E3 (APOE3), the APOE*3Leiden, in addition to the human apolipoprotein C1 (APOC1). […] In contrast to normal wild-type mice, the APOE*3Leiden transgenic mice are highly responsive to diet and hypolipidemic drugs affecting plasma VLDL and chylomicron levels (Van Vlijmen B et al, Diet-induced hyperlipoproteinemia and atherosclerosis in apolipoprotein E3-Leiden transgenic mice, J Clin Invest 1994; 93: 1403-1410; Groot PHE, et al. Quantitative assessment of aortic atherosclerosis in apoE3Leiden transgenic mice and its relationship to serum cholesterol exposure, Arterioscler Thromb Vase Biol 1996; 16: 926-933). Consequently, this model is appropriate to evaluate effects of lipid lowering drugs.
In this study, female APOE*3Leiden transgenic mice were put on a semi-synthetic Western-type diet (WTD; 15% cocoa butter, 40% sucrose and 0.25% cholesterol; all w/w). […]
Liver tissues were stored in RNA later (Qiagen) at −80° C. […] Each sample was measured in 3 parallels, and the results are presented as the mean value relative to control (WTD without addition), The fold change in gene expression was calculated by the ΔΔCt method, using Rplp0 as housekeeping gene and the mean of the control samples as calibrator.

[2] = tested on: plasma apoC-III and other lipid parameters; assay: Example 25A Phase II clinical study, severe hypertriglyceridemia (TG above 500 mg/dL), 12 weeks; format: in vivo, human; conditions: 600 mg QD
Method: This study investigated patients with fasting plasma triglyceride levels above 500 mg/dL The primary objective of this study was to evaluate the efficacy of Compound A (Example 2) 600 mg once daily (QD) orally by assessment of the percentage change in triglycerides (TG) from baseline after 12 weeks of treatment. One of the secondary objectives was to evaluate the impact of Compound A on plasma levels of apoC-III.
(§1) This Phase II, multicenter, proof of concept study consisted of a 6- to 8-week screening period (which included a 4- or 6-week diet and lifestyle stabilization/washout period and a 2-week TG qualifying period), and a 12-week, double-blind, randomized, parallel group, placebo-controlled treatment period.
After confirmation of qualifying fasting TG values, eligible subjects entered the 12-week, randomized, double-blind treatment period. At Visit 4 (Week 0), subjects were randomly assigned in a 1:1 ratio to 1 of the following treatment groups: Compound A 600 mg QD or placebo QD.
Approximately 43 subjects per treatment group (approximately 86 subjects total) were to be randomized in this study. Stratification was by baseline TG level (≤700 mg/dL or >700 mg/dL), statin use at randomization, and gender.
(§2) The population for this study was men and women (women of childbearing potential were required to use adequate methods to avoid pregnancy) between the ages of 18 to 79 years of age, inclusive. Subjects on stable lipid-lowering statin therapy and subjects not on non-statin therapy were eligible to enroll in the study. Subjects were required to have an average fasting TG level ≥500 mg/dL, and ≤1500 mg/dL from Visit 2 and Visit 3 values or Visit 3 and Visit 3.1 values prior to randomization.
The ITT Population was the primary analysis population, All efficacy analyses were performed on the ITT Population.
(§3) Summary statistics (n, mean, standard deviation [SD], median, minimum, and maximum) for the baseline and post-baseline measurements, the percent changes, or changes from baseline were presented by treatment group and by visit for all efficacy variables analyzed.
The primary efficacy analysis was performed using an analysis of covariance (ANCOVA) model with treatment, gender, and the use of statin therapy at randomization as factors and baseline TG value as a covariate. The least-squares means, standard errors, and 2-tailed 95% confidence intervals (CIs) for each treatment group and for the comparison between Compound A and placebo were provided.
An ANCOVA model was used for the analysis of secondary efficacy variables with treatment, gender, and the use of statin therapy at randomization as factors and the baseline value of the respective efficacy variable as a covariate.
The population recruited for the current study included men (69.0%) and women (31.0%) with a mean age of 52.5 years. approximately 21% of subjects in both treatment groups received statin therapy through the study. All other non-statin lipid-altering medications were discontinued at screening. Mean compliance to study medication during the study was 96.5% for the placebo group and 99.9% for the Compound A 600 mg group.

[3] = tested on: plasma apoC-III and other lipid parameters; assay: Example 25B Phase II clinical study, mixed dyslipidemia (TG 200-499 mg/dL) on statins, 12 weeks; format: in vivo, human; conditions: 600 mg QD
Method: This study investigated patients with fasting plasma TG levels between 200 and 499 mg/dL and non-high density lipoprotein cholesterol (non-HDL-C) above 130 mg/dL already receiving treatment with statins. The primary objective of this study was to evaluate the efficacy of Compound A (Example 2) 600 mg QD orally by assessment of the percentage change in triglycerides non-HDL-C from baseline after 12. weeks of treatment. One of the secondary objectives was to evaluate the impact of Compound A on plasma levels of apoC-III.
as §1, with “TG and non-HDL-C” for “TG”
After confirmation of qualifying fasting TG and non-HDL-C values, eligible subjects entered the 12-week, randomized, double-blind treatment period. At Visit 4 (Week 0), subjects were randomly assigned in a 1:1 ratio to 1 of the following treatment groups: Compound A 600 mg QD or placebo QD.
as §2, with “non-statin lipid-lowering” for “non-statin”, “between […]” for “≥500 mg/dL,”, “[…] and non-HDL-C values above 130” for “≤1500”
The ITT Population was the primary analysis population. All efficacy analyses were performed on the ITT Population.
as §3
The primary efficacy analysis was performed using an ANCOVA model with randomization as factor and baseline non-HDL-C value as a covariate. The least-squares means, standard errors, and 2-tailed 95% CIs for each treatment group and for the comparison between Compound A and placebo were provided.
The primary efficacy analysis was based on the […].
The population recruited for the current study included men (58.4%) and women ([…]) with a mean age of 58.3 years. All subjects were required to be on statin therapy (with or without ezetimibe) during the study. All other non-statin lipid-altering medications were discontinued at screening. Mean compliance to study medication during the study was 97.2% for the placebo group and 95.3% for the Compound A group.
The baseline mean non-HDL-C level for the study population was 165.9 mg/dL; the baseline median TG level was 262.0 mg/dL.

Apo C-III = assay: Example 25C Phase Ib clinical study, hypercholesterolemia, 4 weeks; format: in vivo, human; conditions: 600 mg QD, male hypercholesterolemic subjects withdrawn from statin, statistically significant
Method: This study investigated subjects with fasting LDL-C of at least […] (˜97 mg/dl). The objective of the study was to determine the pharmacodynamics and lipid lowering effects of Compound A (Example 2) following 4 weeks of treatment in male, hypercholesterolemic subjects withdrawn from stable statin therapy.
The population for this study consisted of men between 18 and 65 years of any ethnic origin and with a BMI between 18.0 and 35.0 kg/m^2.
This Phase Ib study consisted of a 4-5 week screening period, and a 4 week double-blind, randomized, placebo-controlled treatment period.
All subjects had to be on lipid-lowering statin therapy for at least 3 months prior to the first screening visit, and at stable statin dose for at least 4 weeks prior to the first screening vist.
Statin treatment was withdrawn at the first screening visit, and remained withdrawn for the entire screening period. […]
Blood lipids were measured at the end of the screening period and after 4 weeks of treatment, Exploratory pharmacodynamic measurements included LDL-C, VLDL-C, TC, TO, HDL-C, Non-HDL-C, and Apo B. The impact of Compound A on Apo C-III was also measured.
Summary statistics for baseline is given as mean with coefficient of variance. The mean changes from baseline with 95% confidence intervals were presented by treatment group for efficacy variables analyzed. […]

[4] = subjects with TG >500 mg/dl, 12 weeks
[5] = mixed dyslipidemia, TG = 200-499 mg/dl, on statin, 12 weeks

CC/C=C\C/C=C\C/C=C\C/C=C\C/C=C\CCCCOC(CC)C(=O)OCC (centres unmarked) [Example 12, ethyl 2-((5Z,8Z,11Z,14Z,17Z)-icosa-5,8,11,14,17-pentaen-1-yloxy)butanoate]
hydrolysis in the gastrointestinal tract, from in-vitro digestion [1]: rapidly hydrolyzed

CC/C=C\C/C=C\C/C=C\C/C=C\C/C=C\CCCCOC(CC)C(=O)O (centres unmarked) [Compound A, 2-((5Z,8Z,11Z,14Z,17Z)-icosa-5,8,11,14,17-pentaen-1-yloxy)butanoic acid]
effect on hepatic apoC-III expression compared with reference Compound 12 (apoC-III): more potent | hepatic apoC-III expression versus mice fed a standard WTD (FIG. 1) (apoC-III; P<0.05, Student T-test): significantly lower | LS mean percent change in apoC-III versus placebo ([2]; 12 weeks, ITT Population, 95% CI (−46.5, −22.8)): −34.7% | LS mean percent change in apoC-III vs baseline ([2]; 12 weeks, ITT Population, 95% CI (−47.5, −28.5)): −38.0% | median reduction in apoC-III ([2]; severe HTG patient population): 41% | ApoC-III, median % change from baseline [2, 4]: −41% | HDL-C, median % change from baseline [2, 4]: 24% | LDL-C, median % change from baseline [2, 4]: 43% | Non-HDL-C, median % change from baseline [2, 4]: −8% | TG, median % change from baseline [2, 4]: −51% | VLDL-C, median % change from baseline [2, 4]: −51% | LS mean percent change in ApoC-III vs placebo ([3]; 12-week completer population, 95% CI (−28.8, −12.7)): −20.8% | LS mean percent change in apoC-III vs baseline ([3]; 12-week completer population, 95% CI (−38.4, −26.6)): −32.5% | Apo B, median % change from baseline [3, 5]: −6% | ApoC-III, median % change from baseline [3, 5]: −35% | LDL-C, median % change from baseline [3, 5]: 0% | Non-HDL-C, median % change from baseline [3, 5]: −10% | TG, median % change from baseline [3, 5]: −43% | VLDL-C, median % change from baseline [3, 5]: −39% | median reduction in apoC-III ([3]; mixed dyslipidemic patient population): 35% | mean percent change in Apo C-III vs baseline (Apo C-III): −42%

CC/C=C\C/C=C\C/C=C\C/C=C\C/C=C\CCCCOC(CC)C(=O)OCCCC (centres unmarked) [Example 15, butyl 2-(((5Z,8Z,11Z,14Z,17Z)-icosa-5,8,11,14,17-pentaen-1-yl)oxy)butanoate]
hydrolysis in the gastrointestinal tract, from in-vitro digestion [1]: rapidly hydrolyzed
